# Source: US4150970A, “Growth regulator for plants” (Board of Trustees of Michigan State University, priority 1977, dated 1979)
# Tests used:
# Chico III tomatoes = test: Synthetic triacontanol on tomatoes grown in soil, foliage sprayed (Example III); type: in vivo, tomato; details: six days
# Procedure: Synthetic triacontanol in aqueous solution was applied to rice (4 replicates) in nutrient cultures and to "Chico III" tomatoes (6 replicates) grown in soil as previously described. The response of both rice and tomatoes to synthetic triacontanol after seven and six days respectively was similar to that of the natural triacontanol with the optimum rate at between 0.01 and 0.1 mg per liter, as summarized in the following table III:
# ^2 Tomatoes grown in greenhouse soil and foliage sprayed, including
# IR-8 rice seedlings = test: Growth analysis (NAR, RGR, LAR) of IR-8 rice seedlings (Example V); type: in vivo
# Procedure: (§1) Rice seed cv. IR-8, or Starbonnet was surface treated with 0.1 percent mercuric chloride and planted in 77 cc plastic cups containing vermiculite and watered with one-fourth Hoagland's nutrient solution containing 3 mM of nitrogen at pH 5.0. After 10 days, seedlings were transplanted to 220 cc specimen cups wrapped in aluminum foil and containing 180 cc of the same Hoagland's nutrient solution. Four seedlings were suspended in the solution with a sponge rubber disc. The plants were grown under a 8 h night at 25° C. and a 16 h day at 30° C. with 21 and 8 μwatts per cm^2 in the blue and red spectra respectively. In the test with varying light intensity the high light intensity was 30 13 and the low intensity was 15 and 8 μwatts per cm^2 for the blue and red spectra respectively. The nutrient solution was renewed every 2 or 3 days. After one week the plants were sorted for size and similar sized plants assigned to the same block for the experiment. Prior to the initiation of a test the plants in each cup were assigned treatment numbers by use of a random number table. […] Sixteen hours prior to a test the foil wrapped cups were tared, and filled with one-half Hoaglands solution containing 6 mM nitrogen. Eighteen μl of chloroform or chloroform containing 1.8 μg triacontanol were placed on 2 cm^2 of Whatman No. 1 filter papers, air dried and placed in the specimen cups. This concentration of 10 μg triacontanol/liter was used for all tests described in the following Examples except where specifically indicated to the contrary. Immediately prior to the test the cups were all brought up to 180 ml. including a set of cups without plants to measure evaporation.
# (§2) The plants were disected at harvest into shoots and roots. The expanded leaves were cut at the ligule and the newest leaf at the point it entered the sheath. The surface area of expanded leaves were measured using a Lambda Model LI-3000 planimeter. The plants were dried to constant weight in an oven at 100° C. and the roots, expanded leaves, and sheaths were weighed separately.
# Growth analysis was conducted according to Evans (1972). The Net Assimulation Rate (NAR) is the increase in plant weight per unit of leaf area over time interval where: W=total weight per plant in mg, T=time in days, and L=leaf area in cm^2. [formula]
# The relative growth rate (RGR) is the increase in plant weight per unit of original weight over a time interval and is obtained by: [formula]
# The leaf area ratio is the ratio of leaf area to […] over a time interval. [formula]
# IR-8 rice seedlings were grown as above explained and were tested at 8 hour, 24 hour, 72 hour, and 216 hour intervals. Control (no treatment) plants are indicated by "0" and triacontanol treated plants are indicated by "+" in Table V. The Net Assimulation Rate (NAR), the Relative Growth Rate (RGR) and the Lead Area Ratio (LAR) was determined for each plant at each interval.
# Michigan 396 field corn = test: Single and multiple foliar applications on field corn (Example XII); type: in vivo
# Excerpt: Tests were run, under the conditions above described, to determine the response of "Michigan 396" field corn and "Larker" barley to single and multiple foliar applications of triacontanol at […]. Plants were one week old at time of first treatment and 25 days old at time or harvest. Table XII states the test results.
# [1] = test system: Starbonnet rice seedlings; test: Dry weight, leaf area and water uptake of rice under two light intensities (Example XVI); type: in vivo
# Procedure: as §1
# Water uptake was measured by weighing the cups after removal of the plants and subtracting the tare and the water evaporated. For tests continued for more than one day, the solution used was measured every 3 days and new Hoagland's added and the pH maintained at 5.0 with sulfuric acid.
# as §2
# Fourteen day old "Starbonnet" rice seedlings were prepared and treated with triacontanol as explained in Example IV above.
# The increase in dry weight and leaf area and the water uptake of the rice seedlings treated with triacontanol under two different light intensities was determined. High light was 30 and 13 μwatts/cm^2 and low light 15 and 8 μwatts/cm^2 in the blue and red spectra respectively. The plants were exposed to these light conditions 36 hours prior to treatment. At zero time the plants under low light intensity weighed 26.0 mg with 4.41 cm^2 leaf area. The high light plants weighed 29.5 mg per plant with 4.01 cm^2 leaf area per plant. FIGS. 1, 2 and 3 of the accompanying drawings show the results of these tests. In each Figure, A=low light control; B=low light+triacontanol; C=high light control; and D=high light+triacontanol. Presented in tabular form, the data for FIGS. 1, 2 and 3 appears in Table XVI, as follows: […]
# plants = test: Plant growth regulation (general statement); type: in vivo; details: crops
structure (smiles),measurement,setting,value
"CCCCCCCCCCCCCCCCCCCCCCCCCCCCCCO [Triacontanol, 1-triacontanol]",Dry wt,Chico III tomatoes; 0.001 mg/liter,227 mg/shoot
same,Dry wt,Chico III tomatoes; 0.010 mg/liter,251 mg/shoot
same,Dry wt,Chico III tomatoes; 0.100 mg/liter,245 mg/shoot
same,Dry wt,Chico III tomatoes; 1.000 mg/liter,234 mg/shoot
same,LAR (Leaf Area Ratio),IR-8 rice seedlings; 0-8 hours,0.16
same,NAR (Net Assimulation Rate),IR-8 rice seedlings; 0-8 hours,3.39 mg plant wt per cm^2 per day
same,RGR (Relative Growth Rate),IR-8 rice seedlings; 0-8 hours,0.52 mg dry weight per mg original
same,LAR (Leaf Area Ratio),IR-8 rice seedlings; 9-24 hours,0.15
same,NAR (Net Assimulation Rate),IR-8 rice seedlings; 9-24 hours,0.90 mg plant wt per cm^2 per day
same,RGR (Relative Growth Rate),IR-8 rice seedlings; 9-24 hours,0.14 mg dry weight per mg original
same,LAR (Leaf Area Ratio),IR-8 rice seedlings; 25-72 hours,0.16
same,NAR (Net Assimulation Rate),IR-8 rice seedlings; 25-72 hours,1.03 mg plant wt per cm^2 per day
same,RGR (Relative Growth Rate),IR-8 rice seedlings; 25-72 hours,0.17 mg dry weight per mg original
same,LAR (Leaf Area Ratio),IR-8 rice seedlings; 73-216 hours,0.13
same,NAR (Net Assimulation Rate),IR-8 rice seedlings; 73-216 hours,1.15 mg plant wt per cm^2 per day
same,RGR (Relative Growth Rate),IR-8 rice seedlings; 73-216 hours,0.15 mg dry weight per mg original
same,net assimilation (NAR) greater than control plants,IR-8 rice seedlings; first 8 hour and subsequent 16 hour period,37%
same,"Dry wt, Corn","Michigan 396 field corn; treated at 7, 12 and 18 days",562 mg/shoot
same,"Dry wt, Corn",Michigan 396 field corn; treated at 7 and 12 days,542 mg/shoot
same,"Dry wt, Corn",Michigan 396 field corn; treated at 12 and 18 days,614 mg/shoot
same,"Dry wt, Corn",Michigan 396 field corn; treated at 7 days,548 mg/shoot
same,"Dry wt, Corn",Michigan 396 field corn; treated at 12 days,522 mg/shoot
same,"Dry wt, Corn",Michigan 396 field corn; treated at 18 days,486 mg/shoot
same,"Dry Wt., Percent Increase from Zero Time","[1]; high light, 4 hr",16%
same,"Leaf Area, Percent Increase from Zero Time","[1]; high light, 4 hr",19%
same,Water Uptake,"[1]; high light, 4 hr",192 μl/cm^2 leaf area
same,"Dry Wt., Percent Increase from Zero Time","[1]; high light, 8 hr",27%
same,"Leaf Area, Percent Increase from Zero Time","[1]; high light, 8 hr",38%
same,Water Uptake,"[1]; high light, 8 hr",351 μl/cm^2 leaf area
same,"Dry Wt., Percent Increase from Zero Time","[1]; high light, 16 hr",51%
same,"Leaf Area, Percent Increase from Zero Time","[1]; high light, 16 hr",88%
same,Water Uptake,"[1]; high light, 16 hr",649 μl/cm^2 leaf area
same,dry weight and leaf area gain under low light versus control under high light,[1]; low light conditions,gained as much dry weight and leaf area as the control plants did when subjected to high light conditions
same,"Dry Wt., Percent Increase from Zero Time","[1]; low light, 4 hr",10%
same,"Leaf Area, Percent Increase from Zero Time","[1]; low light, 4 hr",7%
same,Water Uptake,"[1]; low light, 4 hr",117 μl/cm^2 leaf area
same,"Dry Wt., Percent Increase from Zero Time","[1]; low light, 8 hr",23%
same,"Leaf Area, Percent Increase from Zero Time","[1]; low light, 8 hr",31%
same,Water Uptake,"[1]; low light, 8 hr",239 μl/cm^2 leaf area
same,"Dry Wt., Percent Increase from Zero Time","[1]; low light, 16 hr",45%
same,"Leaf Area, Percent Increase from Zero Time","[1]; low light, 16 hr",64%
same,Water Uptake,"[1]; low light, 16 hr",453 μl/cm^2 leaf area
same,application rate that substantially increases crop growth,plants,≥ 0.4 grams per acre
